Data on 38 molecules can be found in PubChem BioAssay AID372 (MTDP, 2006).

SMILES strings stand for the structures. Active and inactive are the calls of the source. No stated cut-off is given here; in the data, active means inhibition above about 50%; inactive means the rest.

In the assay the target is Gag-Pol polyprotein (Human immunodeficiency virus type 1 group M subtype B (isolate HXB2)) (UniProt P04585). In words: RNase H inhibition, HIV 1 Gag Pol polyprotein, FRET biochemical assay, screening (AID 372). The settings on record: HIV-1 RT RNase H, FRET RNA/DNA substrate fluorescence.

Consider `Cc1ccc(S(=O)(=O)/N=C2\C=C(Sc3ncn[nH]3)C(=O)c3ccccc32)cc1`, for which the IC50 was 1.3 µM. As for `COc1ccc(/C=C\C(=O)c2c(-c3ccccc3)c3cc(C)ccc3[nH]c2=O)c(OC)c1`, the figure is 22 µM. As for `COc1ccc(-c2c(C#N)c(N)nc(SCC(=O)c3ccc(O)c(O)c3)c2C#N)cc1`, the figure is 1.8 µM; as for `CCOc1ccc(NC(=O)c2c(NC(=O)c3ccco3)sc3c2CCCCC3)cc1`, 10 µM; as for `CCOc1cccc(N2C(=O)/C(=C/c3cn(CC(=O)OC)c4ccccc34)C(=O)NC2=S)c1`, 5.5 µM. In the case of `O=S(=O)(Nc1cccc(C(F)(F)F)c1)c1ccc2ccccc2c1`, the IC50 was 25 µM. As for `Cc1cc(I)c2c(c1)C1C=CCC1C(C(=O)O)N2` (stereo not drawn), the figure is 100 µM. As for `COc1ccc2c(c1)N(C(=O)CN1C(=O)c3ccccc3C1=O)C(C)(C)c1ssc(=S)c1-2`, the figure is 3 µM; as for `CCOc1ccc(N2C(=O)/C(=C/c3ccc(Br)o3)C(=O)NC2=S)cc1`, 2.1 µM. As to `Cc1cc(-c2ccco2)c(C#N)c(SCC(=O)c2ccc(O)c(O)c2)n1`, the IC50 is 1.4 µM. As for `Cc1sc(NC(=O)c2ccco2)c(C(N)=O)c1C`, the figure is 3.2 µM; as for `Cc1ccc(C)n1-c1ccc(SCC(=O)O)cc1`, 8 µM. On to `Cc1sc(NC(=O)C2CC3CCC2C3)c(C(N)=O)c1C` (stereo not drawn), for which the IC50 is 13 µM. `Cc1ccc(-n2c(/C=C/c3ccc(O)c(O)c3)nc3ccccc3c2=O)cc1`: the IC50 is 3.8 µM.

In the case of `Cc1ccc(N2C(=O)/C(=C/c3ccc(O)c(O)c3)SC2=S)cc1C`, the IC50 was 12 µM. As for `Cc1ccc(-c2cc(C(=O)Nc3sc(C(=O)OC(C)C)c(C)c3C(N)=O)c3ccccc3n2)s1`, the entry is “inactive”; as for `Cc1ccc(S(=O)(=O)N=C2C=CC(=O)C=C2)c(C)c1`, 1.9 µM. For `CC(C)OC(=O)c1cc(O)c(O)c(O)c1`, the IC50 is 1.3 µM. As for `O=C1CC(=O)c2ccc3c4c(ccc1c24)C(=O)CC3=O`, the figure is 3.8 µM. As for `COc1ccccc1NC(=O)c1c(NC(=O)Cc2ccccc2)sc2c1CCCCC2`, the entry is “inactive”. Regarding `Cc1ccc(C=C2C(=O)NC(=S)N(c3ccccc3Cl)C2=O)o1`, the IC50 is 8 µM.

Take `Oc1c(Br)cc(/C=N/Nc2nnc3c(n2)[nH]c2ccccc23)c(Br)c1O`: the IC50 was 4 µM. As for `O=C(Nc1sc2c(c1C(=O)Nc1cccc3ccccc13)CCCCC2)c1ccccc1F`, the entry is “inactive”; as for `COc1ccc(NC(=O)c2c(N)sc(-c3ccccc3)c2C)cc1`, 7 µM; as for `O=C1/C(=C/c2ccc(O)c(O)c2)SC(=S)N1C1CCCCC1`, 5.7 µM. On to `Cc1cccc(NC(=O)c2c(NC(=O)c3ccc([N+](=O)[O-])cc3)sc3c2CCCC3)c1`, for which the IC50 was 1.5 µM.

On to `Cc1ccc(S(=O)(=O)/N=C2\C=CC(=O)C=C2Cl)cc1`, for which the IC50 is 1.5 µM. As for `O=C1/C(=C\c2ccc(O)c(O)c2)SC(=S)N1c1cccc(Cl)c1`, the figure is 4.5 µM; as for `O=C1Nc2ccc(I)cc2C1(O)N1CCOCC1` (stereo not drawn), 6.3 µM; as for `COc1ccc2oc(=O)c(-c3csc(Nc4ccc(Br)cc4)n3)cc2c1`, 10.1 µM.

As to `COc1ccc(-c2nc3sc(-c4ccc(OC)cc4)nc3s2)cc1`, the IC50 was 1.9 µM. On to `O=C(N/N=C/c1ccc(/C=N/NC(=O)c2ccc(O)c(O)c2)cc1)c1ccc(O)c(O)c1`, for which the IC50 is 2.1 µM.

As for `CCOc1ccc(NC(=O)c2c(NC(=O)c3ccccc3)sc3c2CCCCC3)cc1`, the IC50 result is “inactive”. As for `O=C1NC(=S)N(c2ccc(Cl)cc2)C(=O)/C1=C/c1ccco1`, the figure is 8.9 µM; as for `O=C(O)C1Nc2c(Cl)cc(Cl)cc2C2C=CCC12` (stereo not drawn), 72 µM; as for `C=CCN1C(=O)/C(=C\c2ccc([N+](=O)[O-])o2)C(=O)NC1=S`, 75 µM. As for `O=C1C=CC(=NS(=O)(=O)c2ccc(Cl)c([N+](=O)[O-])c2)C=C1`, the figure is 1.5 µM; as for `Cc1ccc(-c2c(C#N)c(SCC(=O)c3ccc(O)c(O)c3)nc3c2CCCC3)o1`, 6.5 µM.
